The CheMixHub viscosity set
± gives the uncertainty stated by the source.

Assay: xn = mol fraction of the nth substance listed

COC(=O)c1ccccc1 + C1COCCO1
viscosity [mPa·s], 100 kPa
Settings	x1 = 0.0898	x1 = 0.1468	x1 = 0.228	x1 = 0.3145	x1 = 0.4054	x1 = 0.5056	x1 = 0.6161	x1 = 0.7316	x1 = 0.8597
303.15 K	1.13 ± 0.046	1.157 ± 0.047	1.198 ± 0.049	1.244 ± 0.05	1.293 ± 0.052	1.352 ± 0.055	1.418 ± 0.057	1.491 ± 0.06	1.573 ± 0.064
308.15 K	1.038 ± 0.042	1.066 ± 0.043	1.106 ± 0.045	1.147 ± 0.046	1.192 ± 0.048	1.246 ± 0.05	1.308 ± 0.053	1.376 ± 0.056	1.449 ± 0.059
313.15 K	0.984 ± 0.04	1.006 ± 0.041	1.04 ± 0.042	1.075 ± 0.044	1.11 ± 0.045	1.157 ± 0.047	1.208 ± 0.049	1.263 ± 0.051	1.324 ± 0.054

CC(C)OCCO + CCCCCO
298.15 K, 101.33 kPa
Settings	viscosity [mPa·s]
x1 = 0.0159	3.466 ± 0.031
x1 = 0.0312	3.405 ± 0.03
x1 = 0.0461	3.354 ± 0.03
x1 = 0.0653	3.292 ± 0.03
x1 = 0.0867	3.234 ± 0.029
x1 = 0.1097	3.16 ± 0.029
x1 = 0.137	3.099 ± 0.029
x1 = 0.1627	3.029 ± 0.028
x1 = 0.1931	2.952 ± 0.028
x1 = 0.2267	2.881 ± 0.028
x1 = 0.2585	2.819 ± 0.027
x1 = 0.2966	2.748 ± 0.027
x1 = 0.3417	2.677 ± 0.027
x1 = 0.3843	2.61 ± 0.026
x1 = 0.4446	2.526 ± 0.026
x1 = 0.4848	2.473 ± 0.026
x1 = 0.4956	2.461 ± 0.026
x1 = 0.5246	2.432 ± 0.026
x1 = 0.5561	2.397 ± 0.026
x1 = 0.6012	2.357 ± 0.026
x1 = 0.6643	2.297 ± 0.026
x1 = 0.7168	2.261 ± 0.026
x1 = 0.7741	2.218 ± 0.026
x1 = 0.8198	2.191 ± 0.026
x1 = 0.8573	2.167 ± 0.026
x1 = 0.8964	2.142 ± 0.026
x1 = 0.9259	2.133 ± 0.026
x1 = 0.9558	2.116 ± 0.026
x1 = 0.9775	2.11 ± 0.026

CCOC(=O)CCl + Cc1cc(C)cc(C)c1
viscosity [mPa·s], 101.3 kPa
Settings	x1 = 0.1123	x1 = 0.2035	x1 = 0.2999	x1 = 0.4019	x1 = 0.4987	x1 = 0.5997	x1 = 0.6963	x1 = 0.7974	x1 = 0.8954
298.15 K	0.693 ± 0.007	0.712 ± 0.008	0.745 ± 0.008	0.775 ± 0.008	0.811 ± 0.008	0.853 ± 0.008	0.902 ± 0.009	0.964 ± 0.009	1.023 ± 0.009
303.15 K	0.653 ± 0.007	0.669 ± 0.007	0.698 ± 0.007	0.725 ± 0.008	0.759 ± 0.008	0.798 ± 0.008	0.841 ± 0.008	0.899 ± 0.009	0.949 ± 0.009
308.15 K	0.612 ± 0.007	0.627 ± 0.007	0.652 ± 0.007	0.677 ± 0.007	0.708 ± 0.008	0.741 ± 0.008	0.779 ± 0.008	0.829 ± 0.008	0.874 ± 0.008
